Publication PMC4350332 (Oncotarget, 2014)

What was measured:
[1] = tested on: PC-3 spheroids; assay: Spheroid growth assay (3D culture); format: cell-based; conditions: concentrations of 10 μM and above
Description: (§1) Compound cytotoxicity was determined using the Sulforhodamine B assay for cells cultured as a monolayer as described previously (45). For spheroid growth experiments, PC-3 cells were seeded (500 cells/well) into 96 well round bottom plates (Corning Costar 7007) in RPMI-1640 media containing 2.5% (w/v) Matrigel (BD Biosciences). […] Spheroid volumes were determined by obtaining diameter measurements from images taken on a Zeiss Axiovert 200M inverted microscope using the axiovision software.

[2] = tested on: p(Ser^293)E1α in PC-3 cells; assay: Immunoblot time course of biomarker suppression in PC-3 cells; format: cell-based; conditions: Fig. 2F
Description: Cell lysates were prepared by washing cells with PBS followed by the addition of lysis buffer (2% SDS, 50 mM TRIS-pH 6.8) directly to the well. Equal amounts of lysate were loaded onto pre-cast 4-12% SDS-PAGE gels (Life technologies) followed by transfer to PVDF membrane. The membranes were blocked for 1 h in TBST containing 5% non-fat dried milk, followed by a 2 h incubation with the relevant primary antibody: PDH phospho(Ser^293)E1α (Genescript, custom rabbit polyclonal antibody), 1:600; PDH E1α (Abcam), 1:1000; PDP-1 (Sigma), 1:2000; PDK-1 (ENZO), 1:1000; HSP-70 (Santa Cruz), 1:5000; β-tubulin (Cell signaling technology), 1:1000. The membranes were then incubated with HRP-linked goat anti-rabbit or anti-mouse secondary antibodies (Santa Cruz) followed by visualization of immunoreactive bands by the addition of a chemiluminescent substrate (Millipore).

[3] = tested on: PC-3 cells; assay: Metabolite analysis (L-lactate, D-glucose, pyruvate, L-alanine) in PC-3 cells; format: cell-based; conditions: for Reduction in media L-lactate levels: 1 h; for Intracellular pyruvate levels: 24 h
Description: Pyruvate, L-lactate, D-glucose and L-alanine levels were determined using commercially available assay kits (Abcam) as per the manufacturer's instructions.

[4] = tested on: ES-2 cells; assay: Potentiation assay with doxorubicin, ES-2; format: cell-based
Description: The cells were then incubated for 120 h followed by cell mass determination using the Sulforhodamine B assay. […] Drug interactions were analyzed by the combination index (CI) method based on the method described by Chou. CI values <0.9 indicates synergism, 0.9 to 1.1 additivity, and >1.1 antagonism. The data was expressed in the form of Fa-CI simulation plot generated using calcusyn software (Biosoft). Potentiation assays were carried out as described previously.

[5] = tested on: PC-3, SW-1088, UM-22B and MEF cell lines; assay: Sulforhodamine B cytotoxicity, cell line set; format: cell-based
Description: as §1

[6] = tested on: hTert immortalized human foreskin fibroblast (HFF) cell line; assay: Glycolytic activity (L-lactate, D-glucose) in HFF cells; format: cell-based; conditions: 6 h, 0.25 g/L D-glucose, 2% dialyzed FCS; VER-246608 effect only at top concentration (27 μM)
Description: Pyruvate, L-lactate, D-glucose and L-alanine levels were determined using commercially available assay kits (Abcam) as per the manufacturer's instructions. […]
transformed and additional cancer cell lines. A, The indicated cell lines were seeded into […]
relevant media containing either 2 g/L D-glucose or D-galactose for 96 h. Cell mass was determined using the sulforhodamine B assay. Results are expressed as the percentage change vs DMSO control values for cells incubated in D-glucose containing media. B, HFF cells were seeded into 96 well plates at a density of 1x10^4 cells per well in 96 well plates. […]
and Nov3r (in DMEM media containing 0.25 g/L D-glucose and 2% dialyzed FCS) for 6 h, followed by the removal of cell culture media for analysis of L-lactate and D-glucose. At the end of the experiment the remaining media was aspirated and the cells transferred to a - 80 °C freezer for subsequent analysis of p(Ser293)E1α levels by MSD ELISA. C. K562 cells […]
analysis of pyruvate dehydrogenase (PDH) activity in cell lysates using a commercially available ELISA-based assay kit (Abcam). Results are expressed as a percentage of the PDH reaction rate in DMSO treated cells. D, Jurkat cells ([…]) were pre-treated in RPMI- […]
suspension in glucose-free RPMI-1640 media supplemented with 2 g/L 1,6-13C-D-Glucose followed by kinetic acquisition of 13C-NMR spectra at 10 min intervals. […]

[7] = tested on: PC-3 cells; assay: Sulforhodamine B cell mass assay, PC-3 cells; format: cell-based
Description: as §1

[8] = tested on: Jurkat cells; assay: 13C-NMR metabolite analysis in Jurkat cells; format: cell-based; conditions: 20 μM
Description: Jurkat cells (5 X 106) were pre-treated in RPMI-1640 media containing either DMSO or 20
μM VER-00246608 for 1 h. The cells were then pelleted and washed in PBS containing
DMSO/compound and re-suspended in glucose-free RPMI-1640 media containing 10% FCS
cell suspension was then transferred to a 5mm NMR tube and placed into the sample probe of
a Bruker DRX600 NMR spectrometer. The probe was pre-equilibrated to 37°C and shimmed
on a matched sample. Pulses were also calibrated on the matched sample. The sample
containing the Jurkat cells was rapidly shimmed and data acquisition initiated within 15
1D 13C NMR spectra (240ppm sweep width, 64k acquired points, 64 scans) were then
acquired at 10 minute intervals up to 2 h. The glucose and lactate peaks were converted to
concentrations by referencing to a cell-free reference sample containing the same
concentration of 1,6-13C-D-Glucose (11 mM).
D, Jurkat cells (5 X 106) were pre-treated in RPMI-
suspension in glucose-free RPMI-1640 media supplemented with 2 g/L 1,6-13C-D-Glucose followed by kinetic acquisition of 13C-NMR spectra at 10 min intervals. Representative curves from duplicate treatments are shown.

[9] = target: T1, PDK-4 (Homo sapiens, UniProt Q16654); assay: DELFIA-based enzyme functional assay (E1 substrate), PDK-4; format: biochemical; conditions: data not shown
T1 construct: PDK-4: residues 1-412; made in house; host or cells: E. coli BL21
T1 sequence (Q16654 whole entry, the tested form may be a part): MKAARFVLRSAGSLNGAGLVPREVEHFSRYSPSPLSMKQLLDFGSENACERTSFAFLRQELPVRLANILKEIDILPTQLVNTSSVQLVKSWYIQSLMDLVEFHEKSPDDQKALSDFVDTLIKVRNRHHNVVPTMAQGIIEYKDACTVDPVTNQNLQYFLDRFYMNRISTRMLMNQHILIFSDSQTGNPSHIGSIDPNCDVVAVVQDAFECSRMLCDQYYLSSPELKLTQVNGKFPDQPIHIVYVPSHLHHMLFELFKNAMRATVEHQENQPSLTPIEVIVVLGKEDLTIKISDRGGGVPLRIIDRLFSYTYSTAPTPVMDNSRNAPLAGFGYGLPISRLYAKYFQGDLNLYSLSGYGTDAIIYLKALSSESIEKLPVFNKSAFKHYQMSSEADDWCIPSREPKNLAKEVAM

[10] = tested on: p(Ser^293)E1α levels in ES-2 cells; assay: Phospho(Ser293) E1α suppression in ES-2 cells; format: cell-based
Description: Phospho(Ser^293) E1α MSD ELISA assay: All reagents were purchased from Meso Scale Discovery (Maryland, USA) unless otherwise stated. Following compound treatment, cells were treated with lysis buffer (TBS pH 7.4, 1% Tween-20, 1 mM EGTA, 1 mM EDTA, 1 mM NaF, protease and phosphatase inhibitor cocktails (Roche)) on ice and the lysates added to standard bind 96 well MSD plates which were pre-loaded with custom phospho(Ser^293)E1α ‘capture’ antibody (2 μg/ml in TBST containing 3% (w/v) blocker A) (Genescript) and blocked with 3% (w/v) blocker A, followed by a 1 h incubation at RT. The wells were then washed 3X with TBST (0.05% tween 20) followed by the addition of 2 μg/ml E1α ‘detection’ antibody (2 μg/ml) (Abcam) and a further 1 h incubation at RT. The wells were again washed 3X with TBST followed by the addition of 1 μg/ml Goat anti-mouse Sulfotag antibody, and a further TBST wash prior to the addition of 2X read buffer T. The chemiluminescent signal was then measured on a MSD sector imager 2400.

[11] = target: PDK-1 (Homo sapiens, UniProt Q15118); assay: Isothermal calorimetry (ITC) binding affinity; set-up: PDK-1: residues 30-436; made in house; host or cells: E. coli BL21
Chain of PDK-1 (Q15118 30-436): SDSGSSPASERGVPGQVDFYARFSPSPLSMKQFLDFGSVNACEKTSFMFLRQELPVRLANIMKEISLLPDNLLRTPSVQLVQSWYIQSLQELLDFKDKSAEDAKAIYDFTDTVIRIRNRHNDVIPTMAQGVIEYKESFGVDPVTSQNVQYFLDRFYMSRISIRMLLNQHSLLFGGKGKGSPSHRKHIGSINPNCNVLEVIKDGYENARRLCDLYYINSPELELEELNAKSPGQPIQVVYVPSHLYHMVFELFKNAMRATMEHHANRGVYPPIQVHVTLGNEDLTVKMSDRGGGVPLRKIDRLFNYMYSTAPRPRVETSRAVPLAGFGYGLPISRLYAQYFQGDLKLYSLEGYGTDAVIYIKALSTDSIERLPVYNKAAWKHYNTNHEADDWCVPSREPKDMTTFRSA

## Cc1cnc(Cl)nc1-c1ccc(N(Cc2ccc(CNC(=O)C(F)F)cc2)C(=O)c2ccc(O)cc2O)cc1 [VER-246608]
[1]
  Reduction in spheroid volume: approximately 50%
[2]
  Period of time to achieve maximal biomarker suppression: 16 min
[3]; PC-3, 9 μM, 0.25 g/L D-glucose, 2% dialyzed FCS
  Reduction in media L-lactate levels: 21%
[3]; PC-3, 20 μM, D-glucose/L-glutamine and serum depleted conditions
  Intracellular pyruvate levels: marked reduction
[3]; PC-3, 20 μM, standard culture conditions
  Intracellular pyruvate levels: no change
[3]; PC-3, 20 μM, standard and low serum culture conditions
  Extracellular L-alanine levels: further substantial decrease
[3]; PC-3, 27 μM, 0.25 g/L D-glucose, 2% dialyzed FCS
  Reduction in media L-lactate levels: 42%
[3]; PC-3, 24 h, 10 and 20 μM, D-glucose/L-glutamine-depleted media
  Extracellular L-lactate levels: further reduction
[3]; PC-3, 24 h, normal or low serum media
  L-lactate production vs DMSO: not altered
[3]; PC-3, same concentrations that reduced L-lactate production (9 and 27 μM)
  Effect on D-glucose consumption: decreased D-glucose consumption
[4]
  Potentiation of doxorubicin: 3 fold
[5]; 0.1% O2
  Compound potency under hypoxic conditions: no evidence of augmented compound potency
[5]; Sulforhodamine B assay, standard media
  Cytotoxicity (reduced cell mass) in standard culture: weakly cytotoxic
[6]
  Effect on glycolytic activity in HFF cells: decrease in extracellular L-lactate and D-glucose levels
[7]; PC-3, 20 μM, 120 h, 0% or 0.1% FCS
  Effect on growth in serum-free media or 0.1% serum: complete suppression of growth
[7]; PC-3, 20 μM, 120 h, D-glucose depletion with 15 mg/L L-glutamine
  Reduction in cell mass vs DMSO control: 50%
[7]; PC-3, 20 μM, 120 h, serum depleted conditions (0.5% FCS)
  Reduction in growth: 70%
[8]
  Decrease in the rate of D-glucose consumption: 23%
  Decrease in the rate of L-lactate production: 25%

## C[C@@H]1CN(C(=O)[C@](C)(O)C(F)(F)F)[C@@H](C)CN1C(=O)c1ccc(C#N)cc1 [Nov3r, reference compound]
[9]
  Stimulation of PDK-4 activity: approximately 2 fold
[10]
  Sub-maximal suppression of p(Ser^293)E1α levels: 80%
[11]
  Kd: 8 nM
[2]
  Period of time to achieve maximal biomarker suppression: 16 min
[3]; PC-3, all concentrations tested, 0.25 g/L D-glucose, 2% dialyzed FCS
  Change in media L-lactate levels: no change
[6]
  Effect on glycolytic activity in HFF cells: did not alter glycolytic activity
[7]; any of the culture conditions, up to a top concentration of 80 μM
  Cytotoxicity/cytostasis-induction: no evidence of cytotoxicity/cytostasis-induction
